{"source": "patent US12522602B2", "about": "“Derivatives having 2,3-dihydro-1H-indene or 2,3-dihydrobenzofuran moiety or pharmaceutically acceptable salt thereof and pharmaceutical compositions comprising the same” (YUHAN CORPORATION, priority 2019, dated 2026)", "data": [{"test_system": "GM1 production in Jurkat cells", "test": "cells", "type": "cell-based", "details": "Homo sapiens, Jurkat, 72 h", "units": {"IC50": "nM"}, "values": [{"compound": "CC1(C)Cc2ccc(-c3ccc(C(F)(F)F)cc3)cc2C1NC(=O)O[C@@H]1CN2CCC1CC2", "note": "(stereo partly drawn) [Example 51, (S)-quinuclidin-3-yl (2,2-dimethyl-6-(4-(trifluoromethyl)phenyl)-2,3-dihydro-1H-inden-1-yl)carbamate]", "IC50": 30.2}, {"compound": "CC1(C)Cc2cc(-c3cccc(F)c3)ccc2C1NC(=O)O[C@@H]1CN2CCC1CC2", "note": "(stereo partly drawn) [Example 77, (S)-quinuclidin-3-yl (5-(3-fluorophenyl)-2,2-dimethyl-2,3-dihydro-1H-inden-1-yl)carbamate]", "IC50": 6.3}, {"compound": "CCC1(CC)Cc2cc(-c3cccc(C(C)(C)C)c3)ccc2C1NC(=O)O[C@@H]1CN2CCC1CC2", "note": "(stereo partly drawn) [Example 294, (S)-quinuclidin-3-yl (5-(3-(tert-butyl)phenyl)-2,2-diethyl-2,3-dihydro-1H-inden-1-yl)carbamate]", "IC50": 10.4}, {"compound": "Cc1ccc(-c2ccc3c(c2)CC(C)(C)C3NC(=O)O[C@@H]2CN3CCC2CC3)cc1C", "note": "(stereo partly drawn) [Example 227, (S)-quinuclidin-3-yl (5-(3,4-dimethylphenyl)-2,2-dimethyl-2,3-dihydro-1H-inden-1-yl)carbamate]", "IC50": 10.2}, {"compound": "COc1ccc(-c2ccc3c(c2)CC(C)(C)C3NC(=O)O[C@@H]2CN3CCC2CC3)cc1Cl", "note": "(stereo partly drawn) [Example 122, (S)-quinuclidin-3-yl (5-(3-chloro-4-methoxyphenyl)-2,2-dimethyl-2,3-dihydro-1H-inden-1-yl)carbamate]", "IC50": 50.8}, {"compound": "CSc1cccc(-c2ccc3c(c2)CC(C)(C)C3NC(=O)O[C@@H]2CN3CCC2CC3)c1", "note": "(stereo partly drawn) [Example 107, (S)-quinuclidin-3-yl (2,2-dimethyl-5-(3-(methylthio)phenyl)-2,3-dihydro-1H-inden-1-yl)carbamate]", "IC50": 6.3}, {"compound": "COc1ccc(-c2ccc3c(c2)CC(C)(C)C3NC(=O)O[C@@H]2CN3CCC2CC3)c(OC)c1", "note": "(stereo partly drawn) [Example 166, (S)-quinuclidin-3-yl (5-(2,4-dimethoxyphenyl)-2,2-dimethyl-2,3-dihydro-1H-inden-1-yl)carbamate]", "IC50": 26.3}, {"compound": "CC(C)c1ccc(-c2cc3c(cc2F)C(NC(=O)O[C@@H]2CN4CCC2CC4)C(C)(C)C3)cc1", "note": "(stereo partly drawn) [Example 351, (S)-quinuclidin-3-yl (6-fluoro-5-(4-isopropylphenyl)-2,2-dimethyl-2,3-dihydro-1H-inden-1-yl)carbamate]", "IC50": 7.4}, {"compound": "COc1cc(OC)cc(-c2cc3c(cc2OC)C(NC(=O)O[C@@H]2CN4CCC2CC4)C(C)(C)C3)c1", "note": "(stereo partly drawn) [Example 345, (S)-quinuclidin-3-yl (5-(3,5-dimethoxyphenyl)-6-methoxy-2,2-dimethyl-2,3-dihydro-1H-inden-1-yl)carbamate]", "IC50": 45.7}, {"compound": "CC1(C)Cc2cc(/C=C/c3cccc(F)c3)ccc2C1NC(=O)O[C@@H]1CN2CCC1CC2", "note": "(stereo partly drawn) [Example 273, (S)-quinuclidin-3-yl (5-((E)-3-fluorostyryl)-2,2-dimethyl-2,3-dihydro-1H-inden-1-yl)carbamate]", "IC50": 13.4}, {"compound": "CC(C)Oc1ccc(-c2ccc3c(c2)CC(C)(C)C3NC(=O)O[C@@H]2CN3CCC2CC3)cc1Cl", "note": "(stereo partly drawn) [Example 127, (S)-quinuclidin-3-yl (5-(3-chloro-4-isopropoxyphenyl)-2,2-dimethyl-2,3-dihydro-1H-inden-1-yl)carbamate]", "IC50": 18.2}, {"compound": "CC1(C)Cc2cc(-c3ccc4c(c3)OCCO4)ccc2C1NC(=O)O[C@@H]1CN2CCC1CC2", "note": "(stereo partly drawn) [Example 112, (S)-quinuclidin-3-yl (5-(2,3-dihydrobenzo[b][1,4]dioxin-6-yl)-2,2-dimethyl-2,3-dihydro-1H-inden-1-yl)carbamate]", "IC50": 35.6}, {"compound": "O=C(NC1CCc2ccc(-c3ccc(OC(F)F)cc3)cc21)O[C@@H]1CN2CCC1CC2", "note": "(stereo partly drawn) [Example 37, (S)-quinuclidin-3-yl (6-(4-(difluoromethoxy)phenyl)-2,3-dihydro-1H-inden-1-yl)carbamate]", "IC50": 55.2}, {"compound": "CC1(C)CC(NC(=O)O[C@@H]2CN3CCC2CC3)c2ccc(-c3ccccc3Cl)cc21", "note": "(stereo partly drawn) [Example 400, (S)-quinuclidin-3-yl (5-(2-chlorophenyl)-3,3-dimethyl-2,3-dihydro-1H-inden-1-yl)carbamate]", "IC50": 108}, {"compound": "CCCOc1cccc(F)c1-c1ccc2c(c1)CC(C)(C)C2NC(=O)O[C@@H]1CN2CCC1CC2", "note": "(stereo partly drawn) [Example 214, (S)-quinuclidin-3-yl (5-(2-fluoro-6-propoxyphenyl)-2,2-dimethyl-2,3-dihydro-1H-inden-1-yl)carbamate]", "IC50": 64.2}, {"compound": "COc1cc(F)ccc1-c1ccc2c(c1)CC(C)(C)C2NC(=O)O[C@@H]1CN2CCC1CC2", "note": "(stereo partly drawn) [Example 179, (S)-quinuclidin-3-yl (5-(4-fluoro-2-methoxyphenyl)-2,2-dimethyl-2,3-dihydro-1H-inden-1-yl)carbamate]", "IC50": 41}, {"compound": "CCC1(CC)Cc2cc(-c3ccc(OCC4CC4)nc3)ccc2C1NC(=O)O[C@@H]1CN2CCC1CC2", "note": "(stereo partly drawn) [Example 308, (S)-quinuclidin-3-yl (5-(6-(cyclopropylmethoxy)pyridin-3-yl)-2,2-diethyl-2,3-dihydro-1H-inden-1-yl)carbamate]", "IC50": 5.5}, {"compound": "CC1(C)Cc2cc(-c3ccc(N4CCOCC4)cc3)ccc2C1NC(=O)O[C@@H]1CN2CCC1CC2", "note": "(stereo partly drawn) [Example 148, (S)-quinuclidin-3-yl (2,2-dimethyl-5-(4-morpholinophenyl)-2,3-dihydro-1H-inden-1-yl)carbamate]", "IC50": 30}, {"compound": "CCOc1ccc(C)cc1-c1ccc2c(c1)CC(C)(C)C2NC(=O)O[C@@H]1CN2CCC1CC2", "note": "(stereo partly drawn) [Example 198, (S)-quinuclidin-3-yl (5-(2-ethoxy-5-methylphenyl)-2,2-dimethyl-2,3-dihydro-1H-inden-1-yl)carbamate]", "IC50": 11.7}, {"compound": "CC1(C)Cc2cc(-c3cc4ccccc4o3)ccc2C1NC(=O)O[C@@H]1CN2CCC1CC2", "note": "(stereo partly drawn) [Example 158, (S)-quinuclidin-3-yl (5-(benzofuran-2-yl)-2,2-dimethyl-2,3-dihydro-1H-inden-1-yl)carbamate]", "IC50": 17.1}, {"compound": "CCCCOc1c(C)cc(-c2cc3c(cc2F)C(NC(=O)O[C@@H]2CN4CCC2CC4)C(C)(C)C3)cc1C", "note": "(stereo partly drawn) [Example 368, (S)-quinuclidin-3-yl (5-(4-butoxy-3,5-dimethylphenyl)-6-fluoro-2,2-dimethyl-2,3-dihydro-1H-inden-1-yl)carbamate]", "IC50": 22.9}, {"compound": "COc1ccc(-c2ccc3c(c2)CC(C)(C)C3NC(=O)O[C@@H]2CN3CCC2CC3)cc1", "note": "(stereo partly drawn) [Example 159, (S)-quinuclidin-3-yl (5-(4-methoxyphenyl)-2,2-dimethyl-2,3-dihydro-1H-inden-1-yl)carbamate]", "IC50": 12.7}, {"compound": "CC(C)(C)c1ccc(-c2cc3c(cc2F)C(NC(=O)O[C@@H]2CN4CCC2CC4)C(C)(C)C3)cc1", "note": "(stereo partly drawn) [Example 353, (S)-quinuclidin-3-yl (5-(4-(tert-butyl)phenyl)-6-fluoro-2,2-dimethyl-2,3-dihydro-1H-inden-1-yl)carbamate]", "IC50": 12.7}, {"compound": "CCc1ccc(-c2ccc3c(c2)CC(CC)(CC)C3NC(=O)O[C@@H]2CN3CCC2CC3)cc1", "note": "(stereo partly drawn) [Example 277, (S)-quinuclidin-3-yl (2,2-diethyl-5-(4-ethylphenyl)-2,3-dihydro-1H-inden-1-yl)carbamate]", "IC50": 2.7}, {"compound": "COc1cccc(-c2ccc3c(c2)CC(C)(C)C3NC(=O)O[C@@H]2CN3CCC2CC3)c1F", "note": "(stereo partly drawn) [Example 231, (S)-quinuclidin-3-yl (5-(2-fluoro-3-methoxyphenyl)-2,2-dimethyl-2,3-dihydro-1H-inden-1-yl)carbamate]", "IC50": 24.3}, {"compound": "COc1ccc(-c2ccc3c(c2)CC(C)(C)C3NC(=O)O[C@@H]2CN3CCC2CC3)c(F)c1", "note": "(stereo partly drawn) [Example 128, (S)-quinuclidin-3-yl (5-(2-fluoro-4-methoxyphenyl)-2,2-dimethyl-2,3-dihydro-1H-inden-1-yl)carbamate]", "IC50": 18.4}, {"compound": "CC1(C)Cc2cc(-c3ccccc3F)ccc2C1NC(=O)O[C@@H]1CN2CCC1CC2", "note": "(stereo partly drawn) [Example 81, (S)-quinuclidin-3-yl (5-(2-fluorophenyl)-2,2-dimethyl-2,3-dihydro-1H-inden-1-yl)carbamate]", "IC50": 12.2}, {"compound": "O=C(NC1CCc2cc(-c3cccc(OC(F)(F)F)c3)ccc21)O[C@@H]1CN2CCC1CC2", "note": "(stereo partly drawn) [Example 8, (S)-quinuclidin-3-yl (5-(3-(trifluoromethoxy)phenyl)-2,3-dihydro-1H-inden-1-yl)carbamate]", "IC50": 27.4}, {"compound": "O=C(NC1CCc2cc(-c3ccccc3C(F)(F)F)ccc21)O[C@@H]1CN2CCC1CC2", "note": "(stereo partly drawn) [Example 11, (S)-quinuclidin-3-yl (5-(2-(trifluoromethyl)phenyl)-2,3-dihydro-1H-inden-1-yl)carbamate]", "IC50": 123}, {"compound": "CC1(C)Cc2ccc(-c3ccc(OC(F)F)cc3)cc2C1NC(=O)O[C@@H]1CN2CCC1CC2", "note": "(stereo partly drawn) [Example 61, (S)-quinuclidin-3-yl (6-(4-(difluoromethoxy)phenyl)-2,2-dimethyl-2,3-dihydro-1H-inden-1-yl)carbamate]", "IC50": 39.6}, {"compound": "O=C(NC1CCc2ccc(-c3ccc(F)cc3F)cc21)O[C@@H]1CN2CCC1CC2", "note": "(stereo partly drawn) [Example 43, (S)-quinuclidin-3-yl (6-(2,4-difluorophenyl)-2,3-dihydro-1H-inden-1-yl)carbamate]", "IC50": 183}, {"compound": "COc1cc(-c2ccc3c(c2)CC(C)(C)C3NC(=O)O[C@@H]2CN3CCC2CC3)ccc1C", "note": "(stereo partly drawn) [Example 254, (S)-quinuclidin-3-yl (5-(3-methoxy-4-methylphenyl)-2,2-dimethyl-2,3-dihydro-1H-inden-1-yl)carbamate]", "IC50": 45.2}, {"compound": "CC1(C)Cc2cc(-c3ccc(OCC(F)F)cc3)ccc2C1NC(=O)O[C@@H]1CN2CCC1CC2", "note": "(stereo partly drawn) [Example 150, (S)-quinuclidin-3-yl (5-(4-(2,2-difluoroethoxy)phenyl)-2,2-dimethyl-2,3-dihydro-1H-inden-1-yl)carbamate]", "IC50": 6.8}, {"compound": "O=C(NC1CCc2ccc(-c3ccc(F)c(F)c3)cc21)O[C@@H]1CN2CCC1CC2", "note": "(stereo partly drawn) [Example 39, (S)-quinuclidin-3-yl (6-(3,4-difluorophenyl)-2,3-dihydro-1H-inden-1-yl)carbamate]", "IC50": 51.9}, {"compound": "CC(C)Cc1ccc(-c2cc3c(cc2F)C(NC(=O)O[C@@H]2CN4CCC2CC4)C(C)(C)C3)cc1", "note": "(stereo partly drawn) [Example 352, (S)-quinuclidin-3-yl (6-fluoro-5-(4-isobutylphenyl)-2,2-dimethyl-2,3-dihydro-1H-inden-1-yl)carbamate]", "IC50": 5.7}]}, {"test_system": "GM1 production in Jurkat cells", "test": "cells", "type": "cell-based", "details": "read-out: IC50", "units": {"IC50": "nM"}, "values": [{"compound": "CCCOc1c(C)cc(-c2ccc3c(c2)CC(CC)(CC)C3NC(=O)O[C@@H]2CN3CCC2CC3)cc1C", "note": "(stereo partly drawn) [Example 304, (S)-quinuclidin-3-yl (5-(3,5-dimethyl-4-propoxyphenyl)-2,2-diethyl-2,3-dihydro-1H-inden-1-yl)carbamate]", "IC50": 23.5}]}]}
